Source: patent publication US20250262201A1, “COMPOUNDS AND METHODS USEFUL FOR STABILIZING PHENYLALANINE HYDROXYLASE MUTATIONS” (Agios Pharmaceuticals, Inc., priority 2022, published 2025)
Where a name gives a salt, the structure may show the parent alone.

Target: T1, human PAH with the R408W mutation (Homo sapiens, UniProt P00439, R408W)
T1 construct: expressed in transfected cells
T1 sequence (P00439 1-452 R408W): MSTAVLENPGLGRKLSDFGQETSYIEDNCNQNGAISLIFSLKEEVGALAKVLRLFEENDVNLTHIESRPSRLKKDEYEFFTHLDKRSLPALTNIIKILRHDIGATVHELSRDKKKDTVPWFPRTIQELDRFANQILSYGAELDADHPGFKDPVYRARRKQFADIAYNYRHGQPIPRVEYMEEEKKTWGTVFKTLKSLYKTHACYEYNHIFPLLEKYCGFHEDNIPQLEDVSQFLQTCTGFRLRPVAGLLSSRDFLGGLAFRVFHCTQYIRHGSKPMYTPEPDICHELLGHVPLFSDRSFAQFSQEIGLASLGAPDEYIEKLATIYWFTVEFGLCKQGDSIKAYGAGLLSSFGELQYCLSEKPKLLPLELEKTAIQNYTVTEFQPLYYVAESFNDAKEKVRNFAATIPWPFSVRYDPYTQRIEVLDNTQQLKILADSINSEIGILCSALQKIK
Experiment: Cell Based Phenylalanine Flux Assay
Settings: A375 cells expressing human R408W PAH; 24 hrs compound incubation; 13C-Tyrosine by LC-MS; average where tested multiple times; read-out: AC50

Q: Which AC50 does the source give for `O=C(c1nnc(NC2CC2)o1)N1CCc2[nH]cnc2[C@@H]1c1cc2ccccc2cn1` [Example 371, (S)-(5-(cyclopropylamino)-1,3,4-oxadiazol-2-yl)(4-(isoquinolin-3-yl)-6,7-dihydro-1H-imidazo[4,5-c]pyridin-5(4H)-yl)methanone] here?
A: The AC50 was over 5 µM.

Q: With `Cc1ncc(CC(=O)N2CCc3[nH]cnc3[C@H]2c2cc3ccccc3cn2)o1` [Example 372, (R)-1-(4-(isoquinolin-3-yl)-6,7-dihydro-1H-imidazo[4,5-c]pyridin-5(4H)-yl)-2-(2-methyloxazol-5-yl)ethanone] as the compound, how does the AC50 read?
A: The AC50 was under 0.5 µM.

Q: How did the AC50 turn out when `O=C(Cc1cncs1)N1CCc2[nH]cnc2[C@H]1c1cc2ccccc2cn1` [Example 373, (R)-1-(4-(isoquinolin-3-yl)-6,7-dihydro-1H-imidazo[4,5-c]pyridin-5(4H)-yl)-2-(thiazol-5-yl)ethanone] was run?
A: Its AC50 is under 0.5 µM.

Q: `O=C(Cc1ccccn1)N1CCc2[nH]cnc2[C@H]1c1cc2ccccc2cn1` [Example 374, (R)-1-(4-(isoquinolin-3-yl)-6,7-dihydro-1H-imidazo[4,5-c]pyridin-5(4H)-yl)-2-(pyridin-2-yl)ethanone] was tested. Which AC50 did it give?
A: The AC50 was under 0.5 µM.

Q: With `O=C(Cc1cnn2ccccc12)N1CCc2[nH]cnc2[C@H]1c1cc2ccccc2cn1` [Example 375, (R)-1-(4-(isoquinolin-3-yl)-6,7-dihydro-1H-imidazo[4,5-c]pyridin-5(4H)-yl)-2-(pyrazolo[1,5-a]pyridin-3-yl)ethanone] as the compound, how does the AC50 read?
A: The AC50 was under 0.5 µM.

Q: For `CC(F)(F)c1ncc(C(=O)N2CCc3[nH]cnc3[C@H]2c2cc3ccccc3cn2)s1` [Example 376, (R)-(2-(1,1-difluoroethyl)thiazol-5-yl)(4-(isoquinolin-3-yl)-6,7-dihydro-1H-imidazo[4,5-c]pyridin-5(4H)-yl)methanone hydrochloride], which AC50 is on record?
A: Its AC50 is under 0.5 µM.

Q: For `O=C(c1oc(-c2ccccn2)nc1C1CC1)N1CCc2[nH]cnc2[C@H]1c1cc2ccccc2cn1` [Example 377, (R)-(4-cyclopropyl-2-(pyridin-2-yl)oxazol-5-yl)(4-(isoquinolin-3-yl)-6,7-dihydro-1H-imidazo[4,5-c]pyridin-5(4H)-yl)methanone], which AC50 is on record?
A: Its AC50 is under 0.5 µM.

Q: With `CC(C)(O)c1nc(C2CC2)c(C(=O)N2CCc3[nH]cnc3[C@H]2c2cc3ccccc3cn2)o1` [Example 378, (R)-(4-cyclopropyl-2-(2-hydroxypropan-2-yl)oxazol-5-yl)(4-(isoquinolin-3-yl)-6,7-dihydro-1H-imidazo[4,5-c]pyridin-5(4H)-yl)methanone] as the compound, how does the AC50 read?
A: Its AC50 is under 0.5 µM.

Q: How did the AC50 turn out when `C[C@H]1CN(C(=O)c2cnc(-c3ccccn3)o2)[C@H](c2cc3ccccc3cn2)c2nc[nH]c21` [Example 381, ((4R,7S)-4-(isoquinolin-3-yl)-7-methyl-6,7-dihydro-1H-imidazo[4,5-c]pyridin-5(4H)-yl)(2-(pyridin-2-yl)oxazol-5-yl)methanone] was run?
A: The AC50 was 1 to 5 µM.

Q: `C[C@H]1CN(C(=O)c2cnc(-c3ccccn3)o2)[C@@H](c2cc3ccccc3cn2)c2nc[nH]c21` [Example 382, ((4S,7S)-4-(isoquinolin-3-yl)-7-methyl-6,7-dihydro-1H-imidazo[4,5-c]pyridin-5(4H)-yl)(2-(pyridin-2-yl)oxazol-5-yl)methanone] was tested. Which AC50 did it give?
A: Its AC50 is over 5 µM.

Q: For `C[C@@H]1CN(C(=O)c2cnc(-c3ccccn3)o2)[C@H](c2cc3ccccc3cn2)c2nc[nH]c21` [Example 384, ((4R,7R)-4-(isoquinolin-3-yl)-7-methyl-6,7-dihydro-1H-imidazo[4,5-c]pyridin-5(4H)-yl)(2-(pyridin-2-yl)oxazol-5-yl)methanone], which AC50 is on record?
A: Its AC50 is 1 to 5 µM.

Q: How did the AC50 turn out when `Cc1nc(C(C)(C)O)oc1C(=O)N1C[C@H](C)c2[nH]cnc2[C@H]1c1cc2ccccc2cn1` [Example 389, (2-(2-hydroxypropan-2-yl)-4-methyloxazol-5-yl)((4R,7S)-4-(isoquinolin-3-yl)-7-methyl-6,7-dihydro-1H-imidazo[4,5-c]pyridin-5(4H)-yl)methanone] was run?
A: The AC50 was under 0.5 µM.

Q: Which AC50 does the source give for `Cc1nc(C(C)(C)O)oc1C(=O)N1C[C@H](C)c2[nH]cnc2[C@@H]1c1cc2ccccc2cn1` [Example 390, (2-(2-hydroxypropan-2-yl)-4-methyloxazol-5-yl)((4S,7S)-4-(isoquinolin-3-yl)-7-methyl-6,7-dihydro-1H-imidazo[4,5-c]pyridin-5(4H)-yl)methanone] here?
A: Its AC50 is over 5 µM.

Q: Which AC50 does the source give for `Cc1nc(C(C)(C)O)oc1C(=O)N1C[C@@H](C)c2[nH]cnc2[C@H]1c1cc2ccccc2cn1` [Example 392, (2-(2-hydroxypropan-2-yl)-4-methyloxazol-5-yl)((4R,7R)-4-(isoquinolin-3-yl)-7-methyl-6,7-dihydro-1H-imidazo[4,5-c]pyridin-5(4H)-yl)methanone] here?
A: The AC50 was 0.5 to 1 µM.

Q: `COCc1ncc(C(=O)N2CCc3[nH]cnc3[C@H]2c2cc3ccccc3cn2)s1` [Example 393, (R)-(4-(isoquinolin-3-yl)-6,7-dihydro-1H-imidazo[4,5-c]pyridin-5(4H)-yl)(2-(methoxymethyl)thiazol-5-yl)methanone] was tested. Which AC50 did it give?
A: The AC50 was 0.5 to 1 µM.

Q: How did the AC50 turn out when `COCc1ncc(C(=O)N2CCc3[nH]cnc3[C@H]2c2cc3ccccc3cn2)o1` [Example 394, (R)-(4-(isoquinolin-3-yl)-6,7-dihydro-1H-imidazo[4,5-c]pyridin-5(4H)-yl)(2-(methoxymethyl)oxazol-5-yl)methanone] was run?
A: The AC50 was 0.5 to 1 µM.

Q: With `C[C@H]1CN(C(=O)c2cnc(C(C)(C)O)o2)[C@H](c2cc3ccccc3cn2)c2nc[nH]c21` [Example 395, (2-(2-hydroxypropan-2-yl)oxazol-5-yl)((4R,7S)-4-(isoquinolin-3-yl)-7-methyl-6,7-dihydro-1H-imidazo[4,5-c]pyridin-5(4H)-yl)methanone] as the compound, how does the AC50 read?
A: Its AC50 is 0.5 to 1 µM.

Q: For `C[C@H]1CN(C(=O)c2cnc(C(C)(C)O)o2)[C@@H](c2cc3ccccc3cn2)c2nc[nH]c21` [Example 396, (2-(2-hydroxypropan-2-yl)oxazol-5-yl)((4S,7S)-4-(isoquinolin-3-yl)-7-methyl-6,7-dihydro-1H-imidazo[4,5-c]pyridin-5(4H)-yl)methanone], which AC50 is on record?
A: Its AC50 is 1 to 5 µM.

Q: How did the AC50 turn out when `C[C@@H]1CN(C(=O)c2cnc(C(C)(C)O)o2)[C@H](c2cc3ccccc3cn2)c2nc[nH]c21` [Example 398, (2-(2-hydroxypropan-2-yl)oxazol-5-yl)((4R,7R)-4-(isoquinolin-3-yl)-7-methyl-6,7-dihydro-1H-imidazo[4,5-c]pyridin-5(4H)-yl)methanone] was run?
A: The AC50 was 1 to 5 µM.

Q: For `C[C@H]1CN(C(=O)c2oc(C(C)(C)O)nc2C2CC2)[C@H](c2cc3ccccc3cn2)c2nc[nH]c21` [Example 399, (4-cyclopropyl-2-(2-hydroxypropan-2-yl)oxazol-5-yl)((4R,7S)-4-(isoquinolin-3-yl)-7-methyl-6,7-dihydro-1H-imidazo[4,5-c]pyridin-5(4H)-yl)methanone], which AC50 is on record?
A: The AC50 was under 0.5 µM.

Q: How did the AC50 turn out when `C[C@H]1CN(C(=O)c2oc(C(C)(C)O)nc2C2CC2)[C@@H](c2cc3ccccc3cn2)c2nc[nH]c21` [Example 400, (4-cyclopropyl-2-(2-hydroxypropan-2-yl)oxazol-5-yl)((4S,7S)-4-(isoquinolin-3-yl)-7-methyl-6,7-dihydro-1H-imidazo[4,5-c]pyridin-5(4H)-yl)methanone] was run?
A: Its AC50 is 1 to 5 µM.

Q: Which AC50 does the source give for `C[C@@H]1CN(C(=O)c2oc(C(C)(C)O)nc2C2CC2)[C@@H](c2cc3ccccc3cn2)c2nc[nH]c21` [Example 401, (4-cyclopropyl-2-(2-hydroxypropan-2-yl)oxazol-5-yl)((4S,7R)-4-(isoquinolin-3-yl)-7-methyl-6,7-dihydro-1H-imidazo[4,5-c]pyridin-5(4H)-yl)methanone] here?
A: Its AC50 is 1 to 5 µM.
